Test system: 313798-341-R-J2-PDC spheroids, viability
Assay: Anticancer human tumor 313798-341-R-J2-PDC patient-derived cervical squamous cell carcinoma cell line growth inhibition [PI3K]
Conditions: spheroids with HUVEC and MSC; for IC50: curve of first compound; for viability, T/C: stronger effect = lower value
Procedure, shortened: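 Combination activity was assessed by viability in multicellular tumor spheroids carrying HUVEC and MSC components. Agents were tested with PI3K inhibitors from a Cmax-based top dose (or 10 microM) downward in half-log increments.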

[1] = second compound 0.0316 µM, first compound 0.0316 µM
[2] = second compound 0.0316 µM, first compound 0.1 µM
[3] = second compound 0.0316 µM, first compound 0.316 µM
[4] = second compound 0.0316 µM, first compound 1 µM
[5] = second compound 0.1 µM, first compound 0.0316 µM
[6] = second compound 0.1 µM, first compound 0.1 µM
[7] = second compound 0.1 µM, first compound 0.316 µM
[8] = second compound 0.1 µM, first compound 1 µM
[9] = second compound 0.316 µM, first compound 0.0316 µM
[10] = second compound 0.316 µM, first compound 0.1 µM
[11] = second compound 0.316 µM, first compound 0.316 µM
[12] = second compound 0.316 µM, first compound 1 µM
[13] = second compound 1 µM, first compound 0.0316 µM
[14] = second compound 1 µM, first compound 0.1 µM
[15] = second compound 1 µM, first compound 0.316 µM
[16] = second compound 1 µM, first compound 1 µM
[17] = second compound 3.16 µM, first compound 0.0316 µM
[18] = second compound 3.16 µM, first compound 0.1 µM
[19] = second compound 3.16 µM, first compound 0.316 µM
[20] = second compound 3.16 µM, first compound 1 µM
[21] = second compound 10 µM, first compound 0.0316 µM
[22] = second compound 10 µM, first compound 0.1 µM
[23] = second compound 10 µM, first compound 0.316 µM
[24] = second compound 10 µM, first compound 1 µM
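Note: spheroids exposed to compounds for seven days.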
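Throughout, for viability, T/C: 100% = DMSO vehicle control viability.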

CCCS(=O)(=O)Nc1ccc(F)c(C(=O)c2c[nH]c3ncc(-c4ccc(Cl)cc4)cc23)c1F + Cc1nc(NC(=O)N2CCCC2C(N)=O)sc1-c1ccnc(C(C)(C)C(F)(F)F)c1
IC50 (second compound 0.0316 µM): 5.85 µM
IC50 (second compound 0.1 µM): 5.6 µM
IC50 (second compound 0.316 µM): 5.65 µM
IC50 (second compound 1 µM): 4.52 µM
IC50 (second compound 3.16 µM): 3.14 µM
IC50 (second compound 10 µM): < 0.0316 µM
viability, T/C [1]: 110%
viability, T/C [2]: 92%
viability, T/C [3]: 93.7%
viability, T/C [4]: 103%
viability, T/C (second compound 0.0316 µM, first compound 3.16 µM): 98%
viability, T/C (second compound 0.0316 µM, first compound 10 µM): 8.19%
viability, T/C [5]: 100%
viability, T/C [6]: 105%
viability, T/C [7]: 98.7%
viability, T/C [8]: 106%
viability, T/C (second compound 0.1 µM, first compound 3.16 µM): 90.7%
viability, T/C (second compound 0.1 µM, first compound 10 µM): 8.86%
viability, T/C [9]: 99.6%
viability, T/C [10]: 111%
viability, T/C [11]: 90.8%
viability, T/C [12]: 105%
viability, T/C (second compound 0.316 µM, first compound 3.16 µM): 89.6%
viability, T/C (second compound 0.316 µM, first compound 10 µM): 10.9%
viability, T/C [13]: 93.2%
viability, T/C [14]: 90.1%
viability, T/C [15]: 88.7%
viability, T/C [16]: 83.9%
viability, T/C (second compound 1 µM, first compound 3.16 µM): 70.7%
viability, T/C (second compound 1 µM, first compound 10 µM): 6.27%
viability, T/C [17]: 62%
viability, T/C [18]: 56.8%
viability, T/C [19]: 56.5%
viability, T/C [20]: 58.7%
viability, T/C (second compound 3.16 µM, first compound 3.16 µM): 49.8%
viability, T/C (second compound 3.16 µM, first compound 10 µM): 6.48%
viability, T/C [21]: 33.5%
viability, T/C [22]: 32.5%
viability, T/C [23]: 38.7%
viability, T/C [24]: 36.4%
viability, T/C (second compound 10 µM, first compound 3.16 µM): 31.2%
viability, T/C (second compound 10 µM, first compound 10 µM): 5.01%

CCN1CCN(Cc2ccc(Nc3ncc(F)c(-c4cc(F)c5nc(C)n(C(C)C)c5c4)n3)nc2)CC1 + CC(Nc1ncnc2nc[nH]c12)c1cc2cccc(Cl)c2c(=O)n1-c1ccccc1
IC50 (second compound 0.0316 µM): > 1 µM
IC50 (second compound 0.1 µM): > 1 µM
IC50 (second compound 0.316 µM): > 1 µM
IC50 (second compound 1 µM): > 1 µM
IC50 (second compound 3.16 µM): > 1 µM
IC50 (second compound 10 µM): > 1 µM
viability, T/C (second compound 0.0316 µM, first compound 0.00316 µM): 98.9%
viability, T/C (second compound 0.0316 µM, first compound 0.01 µM): 98.3%
viability, T/C [1]: 114%
viability, T/C [2]: 114%
viability, T/C [3]: 96%
viability, T/C [4]: 123%
viability, T/C (second compound 0.1 µM, first compound 0.00316 µM): 105%
viability, T/C (second compound 0.1 µM, first compound 0.01 µM): 110%
viability, T/C [5]: 103%
viability, T/C [6]: 113%
viability, T/C [7]: 102%
viability, T/C [8]: 115%
viability, T/C (second compound 0.316 µM, first compound 0.00316 µM): 94.5%
viability, T/C (second compound 0.316 µM, first compound 0.01 µM): 100%
viability, T/C [9]: 92.3%
viability, T/C [10]: 96.9%
viability, T/C [11]: 104%
viability, T/C [12]: 107%
viability, T/C (second compound 1 µM, first compound 0.00316 µM): 104%
viability, T/C (second compound 1 µM, first compound 0.01 µM): 95.3%
viability, T/C [13]: 99.8%
viability, T/C [14]: 101%
viability, T/C [15]: 104%
viability, T/C [16]: 109%
viability, T/C (second compound 3.16 µM, first compound 0.00316 µM): 103%
viability, T/C (second compound 3.16 µM, first compound 0.01 µM): 94.6%
viability, T/C [17]: 98.1%
viability, T/C [18]: 99.8%
viability, T/C [19]: 108%
viability, T/C [20]: 89.8%
viability, T/C (second compound 10 µM, first compound 0.00316 µM): 100%
viability, T/C (second compound 10 µM, first compound 0.01 µM): 91.5%
viability, T/C [21]: 83.9%
viability, T/C [22]: 85.8%
viability, T/C [23]: 82.4%
viability, T/C [24]: 89.5%

Source: PubChem BioAssay AID1963982 (Molecular Pharmacology Branch, DTP, NCI, 2024)
